We go through one sequence from article PMC9274004, “Deciphering the Molecular Interaction Between the Adhesion G Protein-Coupled Receptor ADGRV1 and its PDZ-Containing Regulator PDZD7” (Frontiers in Molecular Biosciences, 2022).

Where no end group is shown, it is not given here.

The target in one assay is T1, PDZD7 P1P2 G103R (Mus musculus, UniProt E9Q9W7, G103R).
T1 construct: PDZ2ext (206-313), P1P2 (81-313); GST (followed by TEV site) (N, cleaved yes); made in house; host or cells: E. coli BL21 DE3
In words: Fluorescence titration of P1P2 G103R. The class given is binding, murine. As for the experimental part: Fluorescence titrations were performed on a Jasco V-730 spectrometer using quartz cell 109.004F-QS (Hellma Analytics) with an optical path of 10 mm and with thick side to reduce the inner filter effect. PDZ1ext and P1P2 were prepared in Phosphate Buffer pH 6.6 (50 mM) at 6 and 2 µM respectively, while PDZ2ext was prepared in Tris HCl pH 7.5 (50 mM) at 5 µM. Variations in the quantum yield of fluorescence of tryptophans from the sample were monitored upon progressive addition of buffered ADGRV1pbm peptide. After peptide addition, the sample is homogenized by in-spectrometer magnet agitation for 30 s. The sample is left to rest for an additional 60 s before measurement. Excitation is set at 295 nm and fluorescence was measured at the maximum emission wavelength (346-349 nm) of the unbound form with a 5 nm bandwidth for both. Titration curves were fitted using the following formula: y = Fp∗p0+(Fx-Fp)∗0.5∗(R∗I0+(1-R)∗x + K-((R∗I0+(1-R)∗x + K)^2-4∗R∗(I0-x)∗x)^1/2), where p0 is the initial protein concentration, I0 the peptide stock concentration, R the p0/I0 ratio, x the volume of added peptide in µl, Fp the fluorescence of PDZ constructs, Fx the fluorescence of the complex, and K the Kd. The values of p0, I0 and R are kept constant.
We characterized the potential effect of the two substitutions on the interaction with ADGRV1pbm using a panel of techniques. […]

The next assay has as its target T2, PDZD7 PDZ1 (81-167) (Mus musculus, UniProt E9Q9W7).
T2 construct: (Uniprot entry E9Q9W7-1); PDZ1 (81-167); GST (followed by TEV site) (N, cleaved yes); made in house; host or cells: E. coli BL21 DE3
In words: NMR titration of PDZ1 with ADGRV1 ligands. The assay is classed as binding, murine. To be noted: NMR titration (1H-15N HSQC CSP), Tris HCl pH 7.5 (50 mM), 25°C; SD of Kd over at least ten shifting peaks. Here is the method:
All experiments were recorded at 25°C on a Bruker 800 MHz spectrometer equipped with a triple resonance ^1H{^13C/^15N} cryoprobe. The ^1H, ^15 N and ^13C backbone resonances assignment of PDZ1ext was carried out using 3D HNCA, HNCACB, HNCO, HNCOCA experiments (Tris HCl buffer adjusted to pH 6). The 2D ^1H-^15N HSQC spectra used to compare PDZ1, PDZ1ext, PDZ2 and PDZ2ext were recorded in Tris HCl pH 7.5 (50 mM). The 2D ^1H-^15N HSQC spectra used to compare PDZ1ext, PDZ2ext and P1P2 were recorded in Phosphate Buffer pH 6.5 (50 mM). Titration experiments of PDZ1 (WT), PDZ1ext (WT) and PDZ1ext (G103R) against ADGRV1pbm peptide were performed in Tris HCl pH 7.5 (50 mM). Averaged Chemical Shifts Perturbations (CSP) were calculated as: Δδavg = ((Δδ(^1H))^2+(Δδ(^15N)*0.159)^2)^½. […]
We monitored the interaction between PDZD7 constructs and a peptide (ADGRV1pbm) corresponding to the last 13 residues of ADGRV1, encompassing its PBM (sequence VELRRIPIADTHL-COOH; PBM underlined). We measured apparent Kd values of our constructs towards ADGRV1pbm using several biophysical methods (NMR, fluorescence, MicroScale Thermophoresis (MST)) (Table 1; Supplementary Figure S3–S5). […]

T1 sequence (E9Q9W7 81-313 G103R): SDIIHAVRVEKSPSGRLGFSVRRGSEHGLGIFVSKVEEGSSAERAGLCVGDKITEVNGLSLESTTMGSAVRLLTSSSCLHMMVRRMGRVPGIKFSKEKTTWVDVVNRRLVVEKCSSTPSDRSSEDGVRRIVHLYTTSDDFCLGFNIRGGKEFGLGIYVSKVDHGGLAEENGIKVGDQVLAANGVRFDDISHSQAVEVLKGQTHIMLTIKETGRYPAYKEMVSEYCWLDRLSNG
T2 sequence (E9Q9W7 81-167): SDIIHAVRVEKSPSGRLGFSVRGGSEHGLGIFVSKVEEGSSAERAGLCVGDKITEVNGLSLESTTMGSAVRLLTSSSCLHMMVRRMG

For the sequence VELRRIPIADTHL [ADGRV1pbm], the equilibrium dissociation constant (Kd) (as a rule, the concentration at which binding is half-saturated) at PDZD7 P1P2 G103R came out at 1.9 ± 0.4 µM; on PDZD7 PDZ1 (81-167) it was 1310 µM.
